Data: patent US10240210B2, “Methods of stratifying patients for treatment with retinoic acid receptor-alpha agonists” (Syros Pharmaceuticals, Inc., priority 2016, dated 2019)

Legend:
THP-1 = assay: AML cell line anti-proliferation (cell viability, ATPlite or CyQuant); type: cell-based; settings: Homo sapiens, 240 h; THP-1 AML cell line; five or ten days incubation; read-out: Tamibarotene anti-proliferative potency (EC50)
KG-1a = assay: as above; type: cell-based, human
PL21 = assay: as above; type: cell-based; settings: Homo sapiens, PL-21, 240 h, five or ten days incubation, read-out: Tamibarotene anti-proliferative potency (EC50)
AM8096 xenografts = assay: AML patient sample-derived xenograft model; type: in vivo, BALB/c nude immunocompromised mice; settings: 6 mg per kg orally daily, after 35 days of treatment
Method: (§1) Different AML patient sample (AM8096, AM5512, AM7577 and AM7440)-derived xenograft models in BALB/c nude immunocompromised mice are prepared by Crown Biosciences (Beijing, China) essentially as follows.
(§2) Approximately 2×10^6 cells from each patient sample are suspended in 100 μL PBS and injected into separate mice (n=3 for each different patient sample and for the control) by IV tail injection. For AM5512, AM7577 and AM7440 xenografts, tumor burden is considered high enough to start treatment when the concentration of human CD45^+ cells reaches ˜1-5% in the animal's peripheral blood. Human CD45^+ cells are detected in mouse blood (obtained via eye bleeds) using a fluorescence activated cell sorter and FITC anti-human CD45 (Biolegend, Cat#304037). For AM8096 xenografts, treatment is begun 40 days after injection of cells.
(§3) Tamibarotene is administered orally in pH 8 adjusted PBS, 1% DMSO on a daily schedule at a final dose of 6 mg per kg body weight in a 10 ml/kg volume. Mice in the vehicle arm are given the same schedule, volume, and formulation, but lacking tamibarotene. Human CD45^+ cell levels in peripheral blood from the treated animals and control animals are measured once a week.

AM7440 xenografts = assay: AML patient sample-derived xenograft model; type: in vivo, BALB/c nude immunocompromised mice; settings: 6 mg per kg orally daily
Method: as §1, §2, §3

AM5512 xenografts = assay: AML patient sample-derived xenograft model; type: in vivo, BALB/c nude immunocompromised mice; settings: 6 mg per kg orally daily, after 35 days of treatment
Method: as §1, §2, §3

AM7577 xenografts = assay: AML patient sample-derived xenograft model; type: in vivo, BALB/c nude immunocompromised mice; settings: 6 mg per kg orally daily
Method: as §1, §2, §3

MV4-11 = assay: AML cell line anti-proliferation (cell viability, ATPlite or CyQuant); type: cell-based, human
HEL = assay: as above; type: cell-based; settings: Homo sapiens, 240 h, five or ten days incubation, read-out: Tamibarotene anti-proliferative potency (EC50)
Nomo-1 = assay: as above; type: cell-based, human
OCI-M1 = assay: as above; type: cell-based, human
EOL-1 = assay: as above; type: cell-based; settings: Homo sapiens, EOL1, 240 h; EOL-1 AML cell line; five or ten days incubation; read-out: Tamibarotene anti-proliferative potency (EC50)
Sig-M5 = assay: as above; type: cell-based, human
OCI-AML3 = assay: as above; type: cell-based, human
HL60 = assay: as above; type: cell-based; settings: Homo sapiens, HL-60, 240 h; HL60 (APL cell line); five or ten days incubation; read-out: Tamibarotene anti-proliferative potency (EC50)
Kasumi-1 = assay: as above; type: cell-based, human
OCI-AML2 = assay: as above; type: cell-based; settings: Homo sapiens, 240 h, five or ten days incubation, read-out: Tamibarotene anti-proliferative potency (EC50)

- EC50 (THP-1): 0.95 nM
- EC50 (MV4-11; Homo sapiens, 240 h, MV4-11 AML cell line, five or ten days incubation, read-out: Tamibarotene anti-proliferative potency (EC50)): 0.17 nM
- EC50 (OCI-M1; Homo sapiens, 240 h, OCI-M1 AML cell line, five or ten days incubation, read-out: Tamibarotene anti-proliferative potency (EC50)): > 50000 nM
- EC50 (OCI-AML3; Homo sapiens, OCI-AML-3, 240 h, OCI-AML3 AML cell line, five or ten days incubation, read-out: Tamibarotene anti-proliferative potency (EC50)): 0.34 nM
- EC50 (HL60): 1.64 nM
- EC50 (OCI-AML2): 0.34 nM
Compound: CC1(C)CCC(C)(C)c2cc(NC(=O)c3ccc(C(=O)O)cc3)ccc21 [tamibarotene]
- EC50 (KG-1a; Homo sapiens, 240 h, KG-1a AML cell line, five or ten days incubation, read-out: Tamibarotene anti-proliferative potency (EC50)): > 50000 nM
- sensitivity of cell line to tamibarotene (KG-1a; KG1a): insensitive
- EC50 (PL21): 1.41 nM
- total % of CD45+ cells and % of CD45+ cells in blood, bone marrow and spleen, compared to the vehicle control (AM8096 xenografts): significant reduction
- tumor volume between tamibarotene treated and vehicle treated animals, overall or in blood, bone marrow or spleen (AM7440 xenografts): no significant reduction
- total % of CD45+ cells and % of CD45+ cells in blood, bone marrow and spleen, compared to the vehicle control (AM5512 xenografts): significant reduction
- tumor volume between tamibarotene treated and vehicle treated animals, overall or in blood, bone marrow or spleen (AM7577 xenografts): no significant reduction
- sensitivity of cell line to tamibarotene (MV4-11; MV-4-11): sensitive
- EC50 (HEL): > 50000 nM
- EC50 (Nomo-1; Homo sapiens, 240 h, Nomo-1 AML cell line, five or ten days incubation, read-out: Tamibarotene anti-proliferative potency (EC50)): 0.48 nM
- sensitivity of cell line to tamibarotene (Nomo-1; NOMO-1): sensitive
- sensitivity of cell line to tamibarotene (OCI-M1; OCI-M1): insensitive
- EC50 (EOL-1): 0.89 nM
- EC50 (Sig-M5; Homo sapiens, 240 h, Sig-M5 AML cell line, five or ten days incubation, read-out: Tamibarotene anti-proliferative potency (EC50)): 0.46 nM
- sensitivity of cell line to tamibarotene (Sig-M5; Sig-M5): sensitive
- sensitivity of cell line to tamibarotene (OCI-AML3; OCI-AML3): sensitive
- EC50 (Kasumi-1; Homo sapiens, 240 h, Kasumi-1 AML cell line, five or ten days incubation, read-out: Tamibarotene anti-proliferative potency (EC50)): > 50000 nM
- sensitivity of cell line to tamibarotene (Kasumi-1; Kasumi-1): insensitive
